What was measured:
Format in all cases: physicochemical
[1] = Stability assessment by HPLC after storage; conditions: for HPLC content, Accelerated condition (40° C./75% RH): open state; for HPLC content, Accelerated condition (40° C./75% RH) / HPLC content, Harsh condition (80° C.): in % (unit assumed); for HPLC content, Harsh condition (80° C.): sealed state, oven 80° C.
Procedure: About 10-30 mg of the sample was stored for 4 weeks in an open state under the accelerated condition (40° C., 75% RH) or in a sealed state under the harsh condition in an oven at 80° C. [table]

[2] = Dynamic vapor sorption (DVS) analysis
Procedure: DVS was measured using automated gravimetric vapor sorption analyzer equipped with Cahn D200 ultra-microbalance (DVS Intrinsic apparatus, Surface Measurement System Ltd., UK). First, a sample of 10-20 mg was put in a sample pan and hung on a hang-down wire, and measurement was started when the weight and humidity reached equilibrium. In one cycle, relative humidity was increased from 0% to 90% and then dropped back to 0%. Two cycles were carried out. The experiment was carried out in a way that the relative humidity was increased at 10% increment using a dm/dt method. The experiment was carried out at room temperature (25° C.)

[3] = Thermogravimetric analysis (TGA)
Procedure: The TGA was measured using Mettler Toledo TGA/DSC 1 module. About 4-8 mg of the sample is weighed and put into a 100 μL Al crucible (flat-bottomed aluminum crucibles). Then, TGA measurement is performed while the sample is heated from 30° C. to 350° C. at a rate of 10° C./min. During the measurement, nitrogen gas is supplied to the inside of the instrument at a rate of 80 mL/min to prevent the inflow of oxygen and other gases. Data collection and evaluation were performed using the software STARe.

Structure (SMILES): CC(C)C(=O)N([C@H]1C[C@@H](C(=O)N2CCOCC2)N(C(=O)[C@@H]2CN(C(C)(C)C)C[C@H]2c2ccc(Cl)cc2)C1)[C@H]1CC[C@@H](C)CC1 [Example 1, N-((3S,5S)-1-((3S,4R)-1-(tert-butyl)-4-(4-chlorophenyl)pyrrolidine-3-carbonyl)-5-(morpholine-4-carbonyl)pyrrolidin-3-yl)-N-((1s,4R)-4-methylcyclohexyl)isobutyramide]
- chemical stability ([1]; accelerated (40° C., 75% RH) and harsh (80° C.) condition, 4 weeks): showed chemical stability for 4 weeks
- decrease in the content until week 4 ([1]; accelerated condition (40° C., 75% RH) and closed state (harsh condition, 80° C.), until week 4): about 1.3%
- decrease in the content under the accelerated condition ([1]; accelerated condition, for 4 weeks): less than 1%
- HPLC content, Initial ([1]; initial, before storage): 97.8%
- HPLC content, Accelerated condition (40° C./75% RH) ([1]; Day 3): 97.51
- HPLC content, Accelerated condition (40° C./75% RH) ([1]; Week 1): 96.64
- HPLC content, Accelerated condition (40° C./75% RH) ([1]; Week 2): 97.73
- HPLC content, Accelerated condition (40° C./75% RH) ([1]; Week 4): 97.47
- HPLC content, Harsh condition (80° C.) ([1]; Day 3): 97.46
- HPLC content, Harsh condition (80° C.) ([1]; Week 1): 97.34
- HPLC content, Harsh condition (80° C.) ([1]; Week 2): 96.94
- HPLC content, Harsh condition (80° C.) ([1]; Week 4): 96.47
- total weight gain observed between 0-90% RH ([2]; DVS, 25° C., 0-90% RH, two cycles): 0.2 % w/w
- physical change after DVS (XRPD pattern compared with initial compound) ([2]; XRPD after DVS analysis): no physical change occurred
- temperature up to which thermally stable ([3]; TGA, error of ±5° C.): up to 270 °C
- weight loss in TGA before degradation ([3]; heated from 30° C. to 350° C. at 10° C./min): no weight loss was observed before degradation

Reference: patent US20240043407A1, “CRYSTALLINE FORM I OF MELANOCORTIN RECEPTOR AGONIST COMPOUND AND METHOD FOR PREPARING SAME” (LG CHEM, LTD., priority 2020, published 2024)
